Active and inactive are the calls of the source. No cut-off for these calls is given here.
How the values were obtained:
[1] = tested on: Mus musculus; experiment: Antifibrotic activity in bleomycin-induced C57BL/6 mouse model of pulmonary fibrosis assessed as reduction in respiratory system elastance at 1 mg/kg, po administered once daily for 18 days starting from 10 days post-bleomycin challenge and measured post last dose; assay type: functional, organism-based
[2] = tested on: Mus musculus; experiment: Antifibrotic activity in bleomycin-induced C57BL/6 mouse model of pulmonary fibrosis assessed as reduction in respiratory system resistance at 1 mg/kg, po administered once daily for 18 days starting from 10 days post-bleomycin challenge and measured post last dose; assay type: functional, organism-based
[3] = Clearance in ICR mouse at 0.5 mg/kg, iv by LC-MS/SM analysis; assay type: ADME, organism-based; details: in vivo
[4] = species: Mus musculus; experiment: Inhibition of class 1 PI3K in mouse Mlg2908 cells assessed as reduction in AKT phosphorylation at S473 residue measured after 3 hrs by Western blot analysis; assay type: cell-based
[5] = Apparent permeability across apical to basolateral side in human Caco2 cells measured after 90 mins by LC-MS/MS analysis; details: Caco-2
[6] = target: PI3-kinase p110-delta/p85-alpha (Homo sapiens, UniProt O00329); experiment: Inhibition of recombinant human N-terminal GST-tagged full-length p110delta/human p85alpha expressed in Sf9 insect cells using PIP2 as substrate by ADP-glo assay
[7] = Toxicity in po dosed C57BL/6 mouse administered once daily via gavage for 7 days measured post-last dose; assay type: organism-based; details: in vivo
[8] = species: Mus musculus; experiment: Inhibition of class 1 PI3K in mouse Mlg2908 cells assessed as reduction in p70S6K phosphorylation measured after 3 hrs by Western blot analysis; assay type: cell-based
[9] = Half life in ICR mouse at 0.5 mg/kg, iv by LC-MS/SM analysis; assay type: ADME, organism-based; details: in vivo
[10] = AUC (0 to infinity) in ICR mouse at 5 mg/kg, po by LC-MS/SM analysis; assay type: ADME, organism-based; design: dose 5 mg/kg, route oral, time infinity; details: in vivo
[11] = target: PI3K p110 beta/p85 alpha (Homo sapiens, UniProt P42338); experiment: Inhibition of recombinant human N-terminal FLAG-tagged full-length p110beta/human p85alpha expressed in Sf9 insect cells using PIP2 as substrate by ADP-glo assay
[12] = tested on: Mus musculus; experiment: Antifibrotic activity in bleomycin-induced C57BL/6 mouse model of pulmonary fibrosis assessed as reduction in lung hydroxyproline level at 1 mg/kg, po administered once daily for 18 days starting from 10 days post-bleomycin challenge and measured post last dose; assay type: functional, organism-based
[13] = tested on: Mus musculus; experiment: Antifibrotic activity in bleomycin-induced C57BL/6 mouse model of pulmonary fibrosis assessed as reduction in lung fibronectin level at 1 mg/kg, po administered once daily for 18 days starting from 10 days post-bleomycin challenge and measured post last dose by Western blot analysis; assay type: functional, organism-based
[14] = tested on: Mus musculus; experiment: Antifibrotic activity in bleomycin-induced C57BL/6 mouse model of pulmonary fibrosis assessed as reduction in lung damage at 1 mg/kg, po administered once daily for 18 days starting from 10 days post-bleomycin challenge and measured post last dose by H and E staining-based histopathological analysis; assay type: functional, organism-based
[15] = tested on: Mus musculus; experiment: Antifibrotic activity in bleomycin-induced C57BL/6 mouse model of pulmonary fibrosis assessed as reduction in inspiratory capacity at 1 mg/kg, po administered once daily for 18 days starting from 10 days post-bleomycin challenge and measured post last dose; assay type: functional, organism-based
[16] = tested on: Mus musculus; experiment: Antifibrotic activity in bleomycin-induced C57BL/6 mouse model of pulmonary fibrosis assessed as reduction in lung alpha-SMA level at 1 mg/kg, po administered once daily for 18 days starting from 10 days post-bleomycin challenge and measured post last dose by immunostaining-based histopathological analysis; assay type: functional, organism-based
[17] = tested on: Mus musculus; experiment: Antifibrotic activity in bleomycin-induced C57BL/6 mouse model of pulmonary fibrosis assessed as reduction in collagen fiber deposition at 1 mg/kg, po administered once daily for 18 days starting from 10 days post-bleomycin challenge and measured post last dose by Masson staining-based histopathological analysis; assay type: functional, organism-based
[18] = tested on: Mus musculus; experiment: Antifibrotic activity in bleomycin-induced C57BL/6 mouse model of pulmonary fibrosis assessed as reduction in lung index at 1 mg/kg, po administered once daily for 18 days starting from 10 days post-bleomycin challenge and measured post last dose; assay type: functional, organism-based
[19] = Volume of distribution at steady state in ICR mouse at 0.5 mg/kg, iv by LC-MS/SM analysis; assay type: ADME, organism-based; details: in vivo, read-out: Vdss
[20] = target: Phosphatidylinositol 4-phosphate 3-kinase C2 domain-containing subunit beta (Homo sapiens) (UniProt O00750); experiment: Binding affinity to wild-type human partial length PIK3C2B (M1 to L1634 residues) expressed in mammalian expression system assessed as residual binding level at 1 uM by kinomescan assay relative to control
[21] = Antifibrotic activity against mouse Mlg2908 cells assessed as reduction in cell viability measured after 72 hrs by MTT assay; assay type: functional, cell-based
[22] = Toxicity in po dosed C57BL/6 mouse administered as single dose via gavage measured up to 7 days; assay type: organism-based; details: in vivo
[23] = target: T1, Phosphatidylinositol 4,5-bisphosphate 3-kinase catalytic subunit gamma isoform (Homo sapiens, UniProt P48736); experiment: Binding affinity to wild-type human partial length PIK3CG (S144 to A1102 residues) expressed in mammalian expression system assessed as residual binding level at 1 uM by kinomescan assay relative to control
Target sequence in this assay (P48736 whole entry, looked up, the tested form may be a part, canonical isoform): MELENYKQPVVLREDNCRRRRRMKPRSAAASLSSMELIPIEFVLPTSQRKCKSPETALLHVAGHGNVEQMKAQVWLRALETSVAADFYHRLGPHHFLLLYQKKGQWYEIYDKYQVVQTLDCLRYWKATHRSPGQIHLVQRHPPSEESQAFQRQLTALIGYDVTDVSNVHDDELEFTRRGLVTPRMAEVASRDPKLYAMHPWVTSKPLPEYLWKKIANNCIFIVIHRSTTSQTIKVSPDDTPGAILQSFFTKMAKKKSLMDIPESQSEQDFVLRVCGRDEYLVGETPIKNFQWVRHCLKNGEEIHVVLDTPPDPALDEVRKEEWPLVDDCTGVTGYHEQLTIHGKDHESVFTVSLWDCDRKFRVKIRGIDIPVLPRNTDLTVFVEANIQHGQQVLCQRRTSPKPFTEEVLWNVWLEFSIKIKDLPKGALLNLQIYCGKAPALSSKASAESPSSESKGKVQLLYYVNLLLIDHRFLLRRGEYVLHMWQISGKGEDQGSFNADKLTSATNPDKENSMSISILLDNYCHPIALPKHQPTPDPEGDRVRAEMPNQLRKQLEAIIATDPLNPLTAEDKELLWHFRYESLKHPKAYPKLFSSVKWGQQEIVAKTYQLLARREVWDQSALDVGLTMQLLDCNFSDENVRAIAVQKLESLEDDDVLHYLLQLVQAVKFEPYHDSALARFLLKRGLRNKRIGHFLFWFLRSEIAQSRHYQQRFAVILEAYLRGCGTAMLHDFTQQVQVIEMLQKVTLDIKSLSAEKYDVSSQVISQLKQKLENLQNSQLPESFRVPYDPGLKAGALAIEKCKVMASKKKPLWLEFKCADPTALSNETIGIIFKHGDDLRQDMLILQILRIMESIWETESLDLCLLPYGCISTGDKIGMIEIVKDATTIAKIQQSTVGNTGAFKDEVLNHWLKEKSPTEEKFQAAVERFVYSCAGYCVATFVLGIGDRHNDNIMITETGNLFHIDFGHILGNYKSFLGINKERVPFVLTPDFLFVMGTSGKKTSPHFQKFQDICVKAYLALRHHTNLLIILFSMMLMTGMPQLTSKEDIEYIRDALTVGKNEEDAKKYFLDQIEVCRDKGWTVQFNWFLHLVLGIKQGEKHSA

[24] = target: PI3-kinase p110-alpha/p85-alpha (Homo sapiens, UniProt P42336); experiment: Inhibition of recombinant human N-terminal FLAG-tagged full-length p110alpha/human p85alpha expressed in Sf9 insect cells using PIP2 as substrate by kinase-glo assay
[25] = Dose normalized AUC in ICR mouse at 5 mg/kg, po by LC-MS/SM analysis; assay type: ADME, organism-based; details: in vivo
[26] = Cmax in ICR mouse at 5 mg/kg, po by LC-MS/SM analysis; assay type: ADME, organism-based; design: dose 5 mg/kg, route oral; details: in vivo
[27] = target: Phosphatidylinositol 4,5-bisphosphate 3-kinase catalytic subunit alpha isoform (Homo sapiens) (UniProt P42336); experiment: Binding affinity to wild-type human partial length PIK3CA (R108 to N1068 residues) expressed in mammalian expression system assessed as residual binding level at 1 uM by kinomescan assay relative to control
[28] = Half life in ICR mouse at 5 mg/kg, po by LC-MS/SM analysis; assay type: ADME, organism-based; details: in vivo
[29] = Therapeutic index, ratio of MTD in po dosed C57BL/6 mouse to compound effect for antifibrotic activity in bleomycin-induced C57BL/6 mouse model of pulmonary fibrosis; assay type: toxicity, organism-based; details: in vivo, read-out: TI
[30] = Oral bioavailability in ICR mouse at 5 mg/kg by LC-MS/SM analysis; assay type: ADME, organism-based; details: in vivo
[31] = species: Mus musculus; experiment: Inhibition of class 1 PI3K in mouse Mlg2908 cells assessed as reduction in S6RP phosphorylation measured after 3 hrs by Western blot analysis; assay type: cell-based
[32] = species: Mus musculus; experiment: Inhibition of class 1 PI3K in mouse Mlg2908 cells assessed as reduction in AKT phosphorylation at T308 residue measured after 3 hrs by Western blot analysis; assay type: cell-based
[33] = AUC (0 to infinity) in ICR mouse at 0.5 mg/kg, iv by LC-MS/SM analysis; assay type: ADME, organism-based; design: dose 0.5 mg/kg, time infinity, route intravenous; details: in vivo
[34] = Apparent permeability across basolateral to apical side in human Caco2 cells measured after 90 mins by LC-MS/MS analysis; details: Caco-2
[35] = target: T1, Phosphatidylinositol 4,5-bisphosphate 3-kinase catalytic subunit gamma isoform; experiment: Inhibition of recombinant human N-terminal His-tagged full-length p120gamma expressed in Sf9 insect cells using PIP2 as substrate by ADP-glo assay
Target sequence in this assay (P48736 whole entry, the tested form may be a part, canonical isoform): as the sequence (P48736 whole entry, looked up, the tested form may be a part, canonical isoform) above

[36] = tested on: Mus musculus; experiment: Antifibrotic activity in bleomycin-induced C57BL/6 mouse model of pulmonary fibrosis assessed as reduction in respiratory system compliance at 1 mg/kg, po administered once daily for 18 days starting from 10 days post-bleomycin challenge and measured post last dose; assay type: functional, organism-based

Chain of Phosphatidylinositol 4-phosphate 3-kinase C2 domain-containing subunit beta (Homo sapiens) (O00750 whole entry, the tested form may be a part): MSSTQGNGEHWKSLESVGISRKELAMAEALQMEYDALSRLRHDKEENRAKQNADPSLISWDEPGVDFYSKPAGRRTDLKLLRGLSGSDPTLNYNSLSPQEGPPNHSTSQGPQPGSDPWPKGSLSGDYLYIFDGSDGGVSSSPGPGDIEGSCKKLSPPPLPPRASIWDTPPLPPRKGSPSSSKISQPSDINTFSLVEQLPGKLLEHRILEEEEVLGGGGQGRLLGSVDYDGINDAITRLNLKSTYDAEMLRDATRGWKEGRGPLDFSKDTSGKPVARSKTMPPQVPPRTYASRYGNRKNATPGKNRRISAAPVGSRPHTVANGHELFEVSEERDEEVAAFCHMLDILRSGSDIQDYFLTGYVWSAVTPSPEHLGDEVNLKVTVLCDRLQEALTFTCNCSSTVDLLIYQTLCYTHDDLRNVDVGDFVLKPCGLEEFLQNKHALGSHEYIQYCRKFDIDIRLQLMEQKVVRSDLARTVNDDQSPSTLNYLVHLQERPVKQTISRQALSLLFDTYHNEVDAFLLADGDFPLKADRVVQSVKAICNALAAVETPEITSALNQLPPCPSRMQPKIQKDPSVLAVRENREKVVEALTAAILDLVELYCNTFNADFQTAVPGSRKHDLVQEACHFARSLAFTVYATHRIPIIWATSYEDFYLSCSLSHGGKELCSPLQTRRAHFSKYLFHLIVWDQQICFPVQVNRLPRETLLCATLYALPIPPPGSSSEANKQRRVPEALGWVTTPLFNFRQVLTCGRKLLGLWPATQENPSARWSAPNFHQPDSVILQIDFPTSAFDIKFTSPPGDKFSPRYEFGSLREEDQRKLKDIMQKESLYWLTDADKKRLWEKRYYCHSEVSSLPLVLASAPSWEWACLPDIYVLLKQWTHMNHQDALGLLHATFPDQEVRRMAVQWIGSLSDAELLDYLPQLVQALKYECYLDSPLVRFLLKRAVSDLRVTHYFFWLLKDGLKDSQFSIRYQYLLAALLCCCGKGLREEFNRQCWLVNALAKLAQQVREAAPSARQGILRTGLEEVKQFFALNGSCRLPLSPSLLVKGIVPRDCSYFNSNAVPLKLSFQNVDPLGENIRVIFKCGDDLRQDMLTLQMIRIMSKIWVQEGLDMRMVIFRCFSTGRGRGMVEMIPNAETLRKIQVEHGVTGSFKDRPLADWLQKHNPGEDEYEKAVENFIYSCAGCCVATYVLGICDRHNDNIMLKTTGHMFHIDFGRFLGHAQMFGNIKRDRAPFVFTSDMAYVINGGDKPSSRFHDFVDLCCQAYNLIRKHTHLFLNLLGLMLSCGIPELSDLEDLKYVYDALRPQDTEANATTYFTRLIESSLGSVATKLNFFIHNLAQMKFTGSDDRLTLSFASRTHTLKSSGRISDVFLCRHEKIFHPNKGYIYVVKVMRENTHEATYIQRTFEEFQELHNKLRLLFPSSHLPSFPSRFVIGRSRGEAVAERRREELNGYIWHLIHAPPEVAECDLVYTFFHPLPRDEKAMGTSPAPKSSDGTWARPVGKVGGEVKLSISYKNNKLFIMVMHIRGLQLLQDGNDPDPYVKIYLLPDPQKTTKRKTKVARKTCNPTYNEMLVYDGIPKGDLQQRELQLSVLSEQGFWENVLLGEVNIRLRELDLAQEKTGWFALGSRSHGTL
Chain of PI3-kinase p110-delta/p85-alpha (P27986 whole entry): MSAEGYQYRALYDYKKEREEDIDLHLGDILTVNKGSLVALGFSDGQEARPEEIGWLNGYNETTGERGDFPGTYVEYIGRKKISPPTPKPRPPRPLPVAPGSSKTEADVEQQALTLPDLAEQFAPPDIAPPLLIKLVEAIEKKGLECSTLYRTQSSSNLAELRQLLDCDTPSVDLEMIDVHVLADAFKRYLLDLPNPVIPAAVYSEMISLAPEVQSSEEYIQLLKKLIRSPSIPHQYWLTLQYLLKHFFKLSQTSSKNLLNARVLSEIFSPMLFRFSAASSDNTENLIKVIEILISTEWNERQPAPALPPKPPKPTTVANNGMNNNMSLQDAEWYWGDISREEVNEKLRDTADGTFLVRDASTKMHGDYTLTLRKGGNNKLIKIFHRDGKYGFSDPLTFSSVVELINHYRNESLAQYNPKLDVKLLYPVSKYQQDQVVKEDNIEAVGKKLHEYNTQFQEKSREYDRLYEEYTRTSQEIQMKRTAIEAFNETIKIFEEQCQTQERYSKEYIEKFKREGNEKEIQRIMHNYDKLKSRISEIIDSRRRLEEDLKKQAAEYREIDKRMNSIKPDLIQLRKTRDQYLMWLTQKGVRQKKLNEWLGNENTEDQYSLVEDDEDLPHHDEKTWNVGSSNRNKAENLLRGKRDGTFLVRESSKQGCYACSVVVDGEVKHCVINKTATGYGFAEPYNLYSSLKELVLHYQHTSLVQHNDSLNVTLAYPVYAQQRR
Chain of PI3-kinase p110-delta/p85-alpha (O00329 whole entry): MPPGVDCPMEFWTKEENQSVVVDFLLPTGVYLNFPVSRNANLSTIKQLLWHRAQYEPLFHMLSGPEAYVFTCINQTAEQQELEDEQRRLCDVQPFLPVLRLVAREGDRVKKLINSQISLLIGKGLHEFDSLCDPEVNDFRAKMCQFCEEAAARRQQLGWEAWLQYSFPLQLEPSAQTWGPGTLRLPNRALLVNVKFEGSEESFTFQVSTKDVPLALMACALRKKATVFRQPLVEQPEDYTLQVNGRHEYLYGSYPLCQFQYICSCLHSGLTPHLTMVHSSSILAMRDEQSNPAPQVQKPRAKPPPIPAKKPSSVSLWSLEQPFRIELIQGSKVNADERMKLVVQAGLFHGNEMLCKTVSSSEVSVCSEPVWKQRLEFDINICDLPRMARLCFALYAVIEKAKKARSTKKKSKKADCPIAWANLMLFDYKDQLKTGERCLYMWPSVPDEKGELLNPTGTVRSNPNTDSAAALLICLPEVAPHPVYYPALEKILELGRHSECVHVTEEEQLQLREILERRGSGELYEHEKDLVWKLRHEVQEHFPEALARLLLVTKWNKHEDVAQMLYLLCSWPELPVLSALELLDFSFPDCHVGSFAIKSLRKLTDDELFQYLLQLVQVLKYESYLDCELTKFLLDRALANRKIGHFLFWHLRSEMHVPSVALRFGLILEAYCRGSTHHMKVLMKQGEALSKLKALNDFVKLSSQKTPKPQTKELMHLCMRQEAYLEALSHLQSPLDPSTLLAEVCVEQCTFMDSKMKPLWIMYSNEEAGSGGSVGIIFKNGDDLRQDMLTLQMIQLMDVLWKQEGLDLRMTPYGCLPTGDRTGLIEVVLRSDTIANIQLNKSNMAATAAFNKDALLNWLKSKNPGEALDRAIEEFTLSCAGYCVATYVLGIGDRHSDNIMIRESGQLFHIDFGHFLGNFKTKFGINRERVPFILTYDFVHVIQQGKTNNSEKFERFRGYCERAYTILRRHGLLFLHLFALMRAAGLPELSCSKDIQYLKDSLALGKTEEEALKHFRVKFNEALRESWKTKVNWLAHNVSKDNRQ

COc1ncc(-c2cc(OCC3(C)COC3)c3ncnc(C)c3c2)cc1NS(=O)(=O)c1ccc(F)cc1F
Activity [1]: Active | Activity [2]: Active | clearance [3]: 12.8 mL/min/kg | inhibition [4]: Dose-dependent effect | Papp A→B at 1.5 h [5]: 46 ×10⁻⁶ cm/s | IC50 [6]: 1.1 nM | MTD at 168 h [7]: > 10 mg/kg | inhibition [8]: Dose-dependent effect | half-life [9]: 0.66 h | AUC(0-inf) [10]: 3670 ng·h/mL | IC50 [11]: 0.7 nM | Activity [12]: Active | Activity [13]: Active | Activity [14]: Active | Activity [15]: Active | Activity [16]: Active | Activity [17]: Active | Activity [18]: Active | Vd [19]: 0.733 L/kg | Activity [20]: 0% | IC50 [21]: 5 nM | MTD at 168 h [22]: > 30 mg/kg | Activity [23]: 0% | IC50 [24]: 0.87 nM | AUC/dose [25]: 734 ng·h/mL per mg/kg | Cmax [26]: 1220 ng/mL | Activity [27]: 0% | half-life [28]: 4.98 h | selectivity ratio [29]: > 10 | bioavailability [30]: 53.1% | inhibition [31]: Dose-dependent effect | inhibition [32]: Dose-dependent effect | AUC(0-inf) [33]: 651 ng·h/mL | Papp B→A at 1.5 h [34]: 36 ×10⁻⁶ cm/s | IC50 [35]: 1.6 nM | Activity [36]: Active
